Reference: PMC11152041, “Tricarbonyl rhenium(I) complexes with 8-hydroxyquinolines: structural, chemical, antibacterial, and anticancer characteristics” (RSC Advances, 2024)
Like-named read-outs stand apart in the source and are kept apart here.

Columns and labels:
HL-60 cells = assay: MTT cytotoxicity assay; type: cell-based, human; settings: MTT, read-out: IC50 ± SD
Experimental: (§1) The cytotoxicities for studied compounds were evaluated against leukemia cells (HL-60), as well as ovarian (SKOV-3), prostate (PC-3), and breast (MCF-7) cancer cell lines. The potential selectivity of these compounds towards cancer cells was assessed by determination of their cytotoxicities towards breast non-cancerous cells (MCF-10A). For comparison, cisplatin was added to the cytotoxicity assays.
(§2) Bacterial strains and cell lines were obtained from the American Type Culture Collection (ATCC).[59] […] Antimicrobial activity was tested in Müeller Hinton (MH) II broth (Becton Dickinson). For anticancer activity assay, the following reagents from Merk were used: 3-(4,5-dimethylthiazol-2-yl)-2,5-diphenyltetrazolium bromide (MTT), sodium dodecyl sulfate (SDS) and HCl. The solubilized formazan product was spectrophotometrically quantified in a Power Wave XS (Bio Tek, Winooski, VT, USA) microplate reader. The HL-60 and PC-3 cells were grown in RPMI-1640 medium with stable glutamine (Biowest) supplemented with 10% (v/v) of heat-inactivated fetal bovine serum (FBS, Biowest) and 1% (v/v) of antibiotic–antimycotic solution (Biowest). The SKOV-3 cells were grown in McCoy's 5A medium with L-glutamine (Biowest) supplemented with 10% (v/v) heat-inactivated FBS, and 1% (v/v) antibiotic–antimycotic solution. The MCF-7 cells were grown in Eagle's MEM (Minimal Essential Medium) medium with stable glutamine (Biowest), supplemented with 10% (v/v) heat-inactivated FBS 1% (v/v) MEM non-essential amino acids (Biowest), 1% (v/v) antibiotic–antimycotic solution, and 1 mM sodium pyruvate (Merck). The MCF-10A cells were grown in Ham's F-12K (Kaighn's) Medium with stable glutamine (Gibco) supplemented with 5% (v/v) heat-inactivated FBS, 1% (v/v) MEM non-essential amino acids, 1% (v/v) antibiotic–antimycotic solution, 5 μg mL^−1 insulin, 0.04 μg mL^−1 hydrocortisone (Merck), and 15 ng mL^−1 human Epidermal Growth Factor (hEGF, PeproTech).
(§3) The cells were cultured in 96-well plates and incubated with the tested compound for 24 h and 48 h. All experiments were performed in exponentially growing cultures. The 0.03 M solutions of the compounds in DMSO were appropriately diluted using culture media. The maximal final concentration of DMSO in each well was 0.1%. The cytotoxicity of the compounds was measured by determining cell viability with a colorimetric test based on 3-(4,5-dimethylthiazol-2-yl)-2,5-diphenyltetrazolium bromide (MTT). MTT stock solution was added to each well to a final concentration of 0.5 mg mL^−1 and incubated for 4 h at 37 °C; following formazan crystals were dissolved by the addition of sodium dodecyl sulfate (SDS) solution (10% SDS in 0.001 M HCl). MTT and SDS were added directly to the cell culture. The compound's IC50 values (concentration required to reduce the viability of cells by 50% compared with the control cells) were calculated from the data obtained with the MTT assay.

PC-3 cells = assay: MTT cytotoxicity assay; type: cell-based, human; settings: MTT, read-out: IC50 ± SD
Experimental: as §1, §2, §3

SKOV-3 cells = assay: MTT cytotoxicity assay; type: cell-based, human; settings: for IC50: MTT, read-out: IC50 ± SD
Experimental: as §1, §2, §3

MCF-10A cells = assay: MTT cytotoxicity assay; settings: for IC50: read-out: IC50 ± SD, MCF-10A (non-cancerous), MTT, * precipitation of the complex
Experimental: as §1, §2, §3

E. coli ATCC25922 = assay: Broth microdilution MIC/MBC (ISO 20776-1); type: cell-based, Escherichia coli; settings: for MBC: E. coli ATCC25922, >99.99% reduction of growth; for MIC: E. coli ATCC25922, MH II broth, 35 °C, 24 h
Experimental: as §2
(§4) The in vitro antibacterial activity was determined according to ISO 20776-1.[88] Among the tested microorganisms were Gram-negative rods, E. coli ATCC25922 and P. aeruginosa ATCC27853, and Gram-positive cocci, S. aureus ATCC29213 and E. faecalis ATCC29212. The selected bacterial species represented the most common etiologic agents of human infections and are used for quality control of antimicrobial susceptibility testing.[89] The test procedure included the determination of MICs and MBCs of complexes and their free ligands. MIC and MBC determinations of ciprofloxacin, as the reference antibiotic, were also performed. All compounds were dissolved in DMSO to reach the maximum 512 mg L^−1 concentration. […] The assay consisted of preparing 2-fold dilutions of the substances in a liquid growth medium MH II and inoculating them with a standardized suspension of microorganisms at a McFarland density of 0.5 (≈10^8 CFU mL^−1). The culture plates were incubated at 35 °C for 24 h. The lowest concentration of the compound inhibiting visible bacterial growth was specified as MIC, and the concentration that reduced bacterial growth by >99.99% after counting live bacteria on the plates compared to the positive control was defined as MBC.

P. aeruginosa ATCC27853 = assay: Broth microdilution MIC/MBC (ISO 20776-1); type: cell-based, Pseudomonas aeruginosa; settings: for MBC: P. aeruginosa ATCC27853, >99.99% reduction of growth; for MIC: P. aeruginosa ATCC27853, MH II broth, 35 °C, 24 h
Experimental: as §2, §4

S. aureus ATCC29213 = assay: Broth microdilution MIC/MBC (ISO 20776-1); type: cell-based, Staphylococcus aureus; settings: for MBC: S. aureus ATCC29213, >99.99% reduction of growth; for MIC: S. aureus ATCC29213, MH II broth, 35 °C, 24 h
Experimental: as §2, §4

E. faecalis ATCC29212 = assay: Broth microdilution MIC/MBC (ISO 20776-1); type: cell-based, Enterococcus faecalis; settings: for MBC: E. faecalis ATCC29212, >99.99% reduction of growth; for MIC: E. faecalis ATCC29212, MH II broth, 35 °C, 24 h
Experimental: as §2, §4

MCF-7 cells = assay: MTT cytotoxicity assay; type: cell-based, human; settings: MTT, read-out: IC50 ± SD
Experimental: as §1, §2, §3

N.N.[Cl][Pt][Cl] [cisplatin, reference compound]
IC50 (HL-60 cells; HL-60, 24 h): 46 ± 1 µM | IC50 (PC-3 cells; PC-3, 24 h): 58 ± 6 µM | IC50 (PC-3 cells; PC-3, 48 h): 20 ± 2 µM | IC50 (SKOV-3 cells; SKOV-3, 24 h): > 100 µM | IC50 (SKOV-3 cells; SKOV-3, 48 h): > 100 µM | activity (SKOV-3 cells; SKOV-3, incubation time not given): no action | IC50 / activity on normal cells (MCF-10A cells; MCF-10A, incubation time not given): no action | IC50 (MCF-10A cells; 24 h): > 100 µM | IC50 (MCF-10A cells; 48 h): > 100 µM

[C-]#[O+].[C-]#[O+].[C-]#[O+].[Re][O]c1cccc2cccnc12.c1c[nH]cn1 [complex 1, [Re(CO)3(Q)Him]]
MBC (E. coli ATCC25922): 256/256 mg L^−1 | MIC (E. coli ATCC25922): 256/256 mg L^−1 | MBC (P. aeruginosa ATCC27853): > 512 mg/L | MIC (P. aeruginosa ATCC27853): 128 mg/L | MBC (S. aureus ATCC29213): > 512 µg/mL | MIC (S. aureus ATCC29213): 256 µg/mL | MBC (E. faecalis ATCC29212): > 512 µg/mL | MIC (E. faecalis ATCC29212): 64 µg/mL | IC50 (HL-60 cells; HL-60, 24 h): 4.3 ± 0.2 µM | IC50 (HL-60 cells; HL-60, 48 h): 4 ± 1 µM | IC50 (MCF-7 cells; MCF-7, 24 h): 34 ± 4 µM | IC50 (MCF-7 cells; MCF-7, 48 h): 30 ± 7 µM | IC50 (PC-3 cells; PC-3, 24 h): 28 ± 6 µM | IC50 (PC-3 cells; PC-3, 48 h): 27 ± 4 µM | IC50 (SKOV-3 cells; SKOV-3, 24 h): 36 ± 5 µM | IC50 (SKOV-3 cells; SKOV-3, 48 h): 39 ± 3 µM | IC50 (MCF-10A cells; 24 h): 39 ± 1 µM | IC50 (MCF-10A cells; 48 h): 24 ± 1 µM

Cc1ncc[nH]1.[C-]#[O+].[C-]#[O+].[C-]#[O+].[Re][O]c1cccc2cccnc12 [complex 2, [Re(CO)3(Q)MeHim]]
MBC (E. coli ATCC25922): >512/>512 mg L^−1 | MIC (E. coli ATCC25922): >512/>512 mg L^−1 | MBC (P. aeruginosa ATCC27853): >512/>512 mg L^−1 | MIC (P. aeruginosa ATCC27853): >512/>512 mg L^−1 | MBC (S. aureus ATCC29213): > 512 µg/mL | MIC (S. aureus ATCC29213): 256 µg/mL | MBC (E. faecalis ATCC29212): > 512 µg/mL | MIC (E. faecalis ATCC29212): 128 µg/mL | IC50 (HL-60 cells; HL-60, 24 h): 10 ± 1 µM | IC50 (HL-60 cells; HL-60, 48 h): 9 ± 1 µM | IC50 (MCF-7 cells; MCF-7, 24 h): 36 ± 3 µM | IC50 (MCF-7 cells; MCF-7, 48 h): 30 ± 1 µM | IC50 (PC-3 cells; PC-3, 24 h): 34 ± 3 µM | IC50 (PC-3 cells; PC-3, 48 h): 35 ± 2 µM | IC50 (SKOV-3 cells; SKOV-3, 24 h): > 100 µM | IC50 (SKOV-3 cells; SKOV-3, 48 h): 44 ± 1 µM | IC50 (MCF-10A cells; 24 h): 31 ± 4 µM | IC50 (MCF-10A cells; 48 h): 29 ± 5 µM

[C-]#[O+].[C-]#[O+].[C-]#[O+].[Re][O]c1cccc2cccnc12.c1ccc(-c2ccn[nH]2)cc1 [complex 4, [Re(CO)3(Q)HPhpz]·0.5CH3CN]
MBC (E. coli ATCC25922): >512/>512 mg L^−1 | MIC (E. coli ATCC25922): >512/>512 mg L^−1 | MBC (P. aeruginosa ATCC27853): >512/>512 mg L^−1 | MIC (P. aeruginosa ATCC27853): >512/>512 mg L^−1 | MBC (S. aureus ATCC29213): > 512 µg/mL | MIC (S. aureus ATCC29213): 256 µg/mL | MBC (E. faecalis ATCC29212): > 512 µg/mL | MIC (E. faecalis ATCC29212): 32 µg/mL | IC50 (HL-60 cells; HL-60, 24 h): 9 ± 1 µM | IC50 (HL-60 cells; HL-60, 48 h): 9 ± 1 µM | IC50 (MCF-7 cells; MCF-7, 24 h): 73 ± 3 µM | IC50 (MCF-7 cells; MCF-7, 48 h): 50 ± 3 µM | IC50 (PC-3 cells; PC-3, 24 h): 42 ± 6 µM | IC50 (PC-3 cells; PC-3, 48 h): 27 ± 3 µM | IC50 (SKOV-3 cells; SKOV-3, 24 h): > 100 µM | IC50 (SKOV-3 cells; SKOV-3, 48 h): 81 ± 9 µM | IC50 (MCF-10A cells; 24 h): 50 ± 5 µM | IC50 (MCF-10A cells; 48 h): 36 ± 4 µM
